Values after ≈ are worked out from the molar mass of the structure shown. Where two headings read alike, the source gives them in different places.
Key:
[1] = test system: Hartley-derived albino guinea pigs
[2] = Interfacial tension predictions (Washburn method, Fowkes theory); assay type: physicochemical
Protocol: Based on the contact angle data, the surface energy is calculated and polar and dispersive components of surface energy as well as surface polarity are estimated.
A surface tension study was performed to characterize active agent samples, various oils and specific formulations for Surface energy with polar and dispersive components. The Washburn method was used to determine contact angles and the Fowkes theory was used to calculate surface energies.
Surface tension measurements were performed on several oils and the following formulations: OT1.0016P (elastomer-MCT oil-based formulation), OT1.0021P (elastomer-based formulation comprising a combination of MCT oil, squalane and isopropyl isostearate) and OT1.0022P (elastomer-based formulation comprising a combination of MCT oil, squalane and oleyl alcohol).

[3] = AD murine model: body weight
Protocol: Atopic Dermatitis is induced by once daily application for 38 days of 100 μl of 0.5% 2,4-dinitrochlorobenzene (DNCB) solution onto the shaved back skin of mice. Starting on day 32, test formulations are administered once daily onto the shaved back skin of mice in addition to DNCB. Several measurements are taken at different time points:
Daily from Day 32: Body weight, mortality, behaviour (scratching), general condition, AD index.

[4] = Chemical stability of topical formulations (HPLC); assay type: physicochemical
Protocol: Where another active agent such as fingolimod is present in the formulations the samples are analysed for that active agent and its degradation products by HPLC. […] The gradient elution is employed.

[5] = Visual solubility determination of Fingolimod free base in organic solvents at RT; assay type: physicochemical; settings: for solubility: organic solvent or mixture, thermodynamic from solid, visual determination at RT
Protocol: A visual solubility evaluation of Fingolimod free base was performed.

[6] = Toxicokinetic / pK evaluation in Gottingen Minipigs (plasma tofacitinib, whole blood fingolimod and fingolimod phosphate); settings: minipig, topical
Protocol: (§1) The animals are not fasted prior to blood collection, with the exception of the intervals that coincide with fasting for clinical pathology collections.
(§2) If necessary, the samples are frozen on dry ice prior to being placed in the freezer. […] Samples are stored at the bioanalytical laboratories in a freezer set to maintain −80±10° C. until analysis.
(§3) Samples designated for analysis of fingolimod and fingolimod phosphate are mixed gently, lysed with an equal volume of deionized water, vortexed for approximately 1 minute, divided into two approximately equal aliquots, transferred to uniquely labeled polypropylene tubes and frozen in a freezer set to maintain −70° C. If necessary, the samples are frozen on dry ice prior to being placed in the freezer. The samples for fingolimod analysis are shipped with a temperature monitoring device to bioanalytical laboratories. Samples are stored at the bioanalytical laboratories in a freezer set to maintain −75±15° C. until analysis.
(§4) Whole blood is analyzed for concentration of fingolimod and fingolimod phosphate using a validated analytical procedure for the simultaneous quantitation of both analytes.
(§5) TK samples collected on Days 49 and 56 from recovery animals in Groups 1, 2, 3, 5, and 6 are also analyzed. Statistical analyses including regression analysis and descriptive statistics including arithmetic means and standard deviations, accuracy, and precision are performed. Incurred sample reanalysis may be performed as part of this study according to the Test Site SOPs.
(§6) A non-compartmental approach consistent with the dermal route of administration is used for parameter estimation.
(§7) Partial AUCs (between 2 defined sample times), and corresponding dose-normalized values, are derived and reported to aid interpretation. Descriptive statistics (e.g., number, arithmetic mean, median, standard deviation, standard error, coefficient of variation) are reported as deemed appropriate, as well as ratios for appropriate grouping and sorting variables (e.g. AUC and/or Cmax female/male ratios, AUC and/or Cmax metabolite/parent drug ratios).

[7] = Skin penetration (IVPT), vertical diffusion cell, LC-MS/MS; assay type: in vitro ADME, human; settings: for Dermis concentration, μg/g Based on the Mean (n = 5) / Epidermis concentration, μg/g Based on the Mean (n = 5): estimated, skin 500 μm; for Dermis concentration, μg/g Based on the Mean (n = 5) / Epidermis concentration, μg/g Based on the Mean (n = 5) / estimated concentration of active in epidermis: epidermis assumed 80 μm, density 1.0 g/cm^3; for fingolimod concentration in receptor fluid: quantitation limit of LC-MS method
Protocol: The skin is dosed with approx. 6 mg of formulation to achieve a dose of ˜10 mg/cm2. Receptor solution is collected at pre-determined intervals over the course of 24 hours and analyzed using a liquid chromatography with tandem mass spectrometry (LC-MS/MS) analytical method.
Following 24 hours, the residual formulation is removed from the surface of the skin. The skin surface is tape-stripped up to five times to remove residual formulation and the top of the skin surface layers (Stratum Corneum). The epidermis is then heat-separated from the dermis. The active agent is extracted from the skin layers and the amount of active agent delivered to the epidermis and dermis is then determined by LC-MS/MS.

in vivo = settings: both, Gottingen, minipig, plasma (tofacitinib); whole blood (fingolimod), topical
Protocol: as §1, §2, §3, §4, §5, §6, §7

[8] = test system: Atopic Dermatitis induced by 2,4-dinitrochlorobenzene (DNCB); experiment: AD murine model: AD index (ADI, mADI), behaviour, histological analysis of skin; assay type: in vivo; settings: DNCB induced mice, Example 41 (combination study)
Description: As used herein, “Atopic Dermatitis Index (ADI)” refers to the sum of the scores of four factors consisting of: (1) the presence of erythema/haemorrhage on the skin, (2) edema/thickening of the skin, (3) excoriation/erosion of the skin and (4) dryness/peeling of the skin at the area of induction of atopic dermatitis. The sum of the scores of these factors provides a combined ADI, on a scale of 0 to 12. […]
The presence of erythema/haemorrhage is scored based on the following scoring grid: • 0=no or no more erythema/haemorrhage on the skin, • 1=weak erythema/haemorrhage on the skin, • 2=moderate erythema/haemorrhage on the skin, • 3=severe erythema/haemorrhage on the skin.
The presence of edema/thickening is scored based on the following scoring grid: • 0=no or no more edema/thickening of the skin, • 1=weak edema/thickening of the skin, • 2=moderate edema/thickening of the skin, • 3=severe edema/thickening of the skin.
The presence of excoriation/erosion is scored based on the following scoring grid: • 0=no or no more excoriation/erosion of the skin, • 1=weak excoriation/erosion of the skin, • 2=moderate excoriation/erosion of the skin, • 3=severe excoriation/erosion of the skin. […]

[9] = test system: S1P receptors (S1P1 and S1P3-5); settings: cited from earlier work
[10] = 2 months at 40° C., formulation of Table 38
[11] = 2 months at 50° C., formulation of Table 38
[12] = 3 weeks at 5° C., formulation of Table 38
[13] = 3 weeks at 50° C., formulation of Table 38
[14] = Dermis, formulation of Table 42 (fingolimod HCl […])
[15] = Dermis, formulation of Table 43a
[16] = Epidermis, formulation of Table 43a
[17] = Receptor fluid, formulation of Table 42 (fingolimod HCl […])
[18] = Receptor fluid, formulation of Table 43a
[19] = formulation with 1.0% tofacitinib citrate and […] fingolimod hydrochloride

O=[N+]([O-])c1ccc(Cl)c([N+](=O)[O-])c1 [DNCB, 2,4-dinitrochlorobenzene]
Group mean dermal scores, test animals ([1]; challenge with 0.05% w/v DNCB in acetone and ethanol, control animals 0.25): 0.6
Group mean dermal scores, test animals ([1]; challenge with 0.1% w/v DNCB in acetone and ethanol, control animals 0.375): 1.45

C[C@@H]1CCN(C(=O)CC#N)C[C@@H]1N(C)c1ncnc2[nH]ccc12.O=C(O)CC(O)(CC(=O)O)C(=O)O [Tofacitinib Citrate micronized Lot TOF0000004-04]
Interfacial Tension ([2]; with OT1.0016P): 2.72 mN/m
Interfacial Tension ([2]; with OT1.0021P): 2.17 mN/m
Interfacial Tension ([2]; with OT1.0022P): 1.95 mN/m
Interfacial Tension ([2]; with Stainless Steel): 2.50 mN/m

C[C@@H]1CCN(C(=O)CC#N)C[C@@H]1N(C)c1ncnc2[nH]ccc12.O=C(O)CC(O)(CC(=O)O)C(=O)O [Tofacitinib Citrate non-micronized Lot TOF0000004]
Interfacial Tension ([2]; with OT1.0016P): 1.88 mN/m
Interfacial Tension ([2]; with OT1.0021P): 1.45 mN/m
Interfacial Tension ([2]; with Stainless Steel): 1.62 mN/m

CC1(C)O[C@@H]2C[C@H]3[C@@H]4CCC5=CC(=O)C=C[C@]5(C)[C@@]4(F)[C@@H](O)C[C@]3(C)[C@]2(C(=O)CO)O1 [Triamcinolone acetonide]
Mean body weights values: Weight D 32 ([3]; DNCB induced mice, Example 41, D 32 (treatment start)): 18.31
Mean body weights values: Weight D 39 ([3]; DNCB induced mice, Example 41, D 39): 15.66
Mean Body Weight Change d 39 − d 32 ([3]; DNCB induced mice, Example 41, (+) weight gain, (−) weight loss): −2.65

CCCCCCCCc1ccc(CCC(N)(CO)CO)cc1 [fingolimod, 2-amino-2-[2-(4-octylphenyl)ethyl]propane-1,3-diol]
Assay, % LC [4, 10]: 97.2 % LC
Assay, % LC [4, 11]: 95.0 % LC
Assay, % LC [4, 12]: 100.3 % LC
Assay, % LC ([4]; 3 weeks at 40° C., formulation of Table 38): 99.9 % LC
Assay, % LC [4, 13]: 94.1 % LC
Assay, % LC ([4]; Initial, elastomer-based formulation of Table 38 (tofacitinib citrate 1.0%, fingolimod HCl 0.01%)): 99.9 % LC
visual solubility ([5]; alcohols, RT): very good solubility
visual solubility ([5]; most of organic solvents tested, RT): good solubility
solubility ([5]; 2-Methyl tetrahydrofurane): 10000 µg/mL (≈ 32.5 mM)
solubility ([5]; Acetone): 5000 µg/mL (≈ 16.3 mM)
solubility ([5]; Acetonitrile): 1800 µg/mL (≈ 5.85 mM)
solubility ([5]; Dichloromethane): 6700 µg/mL (≈ 21.8 mM)
solubility ([5]; Ethyl acetate): 4000 µg/mL (≈ 13 mM)
solubility ([5]; Isopropanol): 20000 µg/mL (≈ 65 mM)
solubility ([5]; Methyl ethyl ketone): 1200 µg/mL (≈ 3.9 mM)
solubility ([5]; Methyl isobutyl ketone): 5000 µg/mL (≈ 16.3 mM)
solubility ([5]; tert-Butyl methyl ether): 2000 µg/mL (≈ 6.5 mM)
visual solubility ([5]; water, toluene, diisopropyloxide and methyl ethyl ketone): very low soluble
AUC(0-t) [6]: 3.73 ng·h/mL
Cmax [6]: 0.467 ng/mL
Amount of Fingolimod recovered, % applied dose, Mean (n = 5) [7, 14]: 2.59%
Amount of Fingolimod recovered, ng, Mean (n = 5) [7, 14]: 49.16 ng
Amount of Fingolimod recovered, % applied dose, Mean (n = 5) [7, 15]: 1.44%
Amount of Fingolimod recovered, ng, Mean (n = 5) [7, 15]: 14.82 ng
Amount of Fingolimod recovered, % applied dose, Mean (n = 5) ([7]; Epidermis, formulation of Table 42 (fingolimod HCl […])): 1.98%
Amount of Fingolimod recovered, % applied dose, Mean (n = 5) [7, 16]: 1.59%
Amount of Fingolimod recovered, ng, Mean (n = 5) [7, 16]: 16.21 ng
Amount of Fingolimod recovered, % applied dose, Mean (n = 5) [7, 17]: ND (ND—not detected (below LOQ of 0.25 ng/mL))
Amount of Fingolimod recovered, ng, Mean (n = 5) [7, 17]: ND (ND—not detected (below LOQ of 0.25 ng/mL))
Amount of Fingolimod recovered, % applied dose, Mean (n = 5) [7, 18]: ND (ND—not detected (below LOQ of 0.25 ng/ml))
Amount of Fingolimod recovered, ng, Mean (n = 5) [7, 18]: ND (ND—not detected (below LOQ of 0.25 ng/ml))
Dermis concentration, μg/g Based on the Mean (n = 5) ([7]; formulation of Table 43a): 0.6 µg/g
Epidermis concentration, μg/g Based on the Mean (n = 5) ([7]; formulation of Table 43a): 3.4 µg/g
fingolimod concentration in receptor fluid ([7]; formulation containing […] of fingolimod hydrochloride): < 0.25 ng/mL
estimated concentration of active in dermis [7, 19]: 0.6 µg/mL
estimated concentration of active in epidermis [7, 19]: 3.4 µg/g
fingolimod concentration in receptor fluid [7, 19]: < 0.25 ng/mL

C[C@@H]1CCN(C(=O)CC#N)C[C@@H]1N(C)c1ncnc2[nH]ccc12 [tofacitinib]
Cmax (in vivo): 1.56 ng/mL
Assay, % LC [4, 10]: 99.2 % LC
Assay, % LC [4, 11]: 98.6 % LC
Assay, % LC [4, 12]: 99.3 % LC
Assay, % LC [4, 13]: 99.1 % LC
Dermis concentration, μg/g Based on the Mean (n = 5) ([7]; formulation of Table 43a): 34.9 µg/g
Epidermis concentration, μg/g Based on the Mean (n = 5) ([7]; formulation of Table 43a): 364.3 µg/g
estimated concentration of active in dermis [7, 19]: 34.9 µg/g
estimated concentration of active in epidermis [7, 19]: 364.3 µg/g

CC1(C)O[C@@H]2C[C@H]3[C@@H]4CCC5=CC(=O)C=C[C@]5(C)[C@@]4(F)[C@@H](O)C[C@]3(C)[C@]2(C(=O)CO)O1 [triamcinolone acetonide]
Mean ADI values (AD Index) D 39 [8]: 0.88

Triamcinolone
Body weight D39 Mean ([3]; mouse, in vivo): 17.7 g
Body weight D39 mean ([3]; mouse, in vivo): 17.1 g
Mean Body Weight Change Day 39 − Day 32, Study 1 ([3]; mouse, in vivo): −2.80
Mean Body Weight Change Day 39 − Day 32, Study 2 ([3]; mouse, in vivo): −2.06
Mean Body Weight Change d 39 − d 32 ([3]; mouse, in vivo): −2.80

fingolimod-phosphate
affinity to four of the five S1P receptors (S1P1 and S1P3-5) [9]: 0.3 to 3.1 nM

From patent US20240325393A1, “TOFACITINIB-CONTAINING ANHYDROUS ELASTOMER-BASED GEL FORMULATIONS” (VYNE THERAPEUTICS INC., priority 2020, published 2024)
